Our source for the EC50 and Emax values is patent US12281149B2, “Modulators of G-protein coupled receptors” (priority 2021, dated 2025).

*1 amine or outer side, *2 acyl side, *3 side chain or, on linkers, in order; H or OH if unused. Where a SMILES comes first, the peptide text is derived from it. Side-chain parts run from the residue outwards. [ ]: non-standard residue; d: D form. The star is where a group is joined. Isobutyryl(2-(3-CN-5-F-Ph)) = CC(C)(C(=O)*)c1cc(F)cc(C#N)c1; C20 diacid = O=C(O)CCCCCCCCCCCCCCCCCCC(=O)*; γGlu = O=C(O)[C@H](CCC(=O)[*:2])N[*:1]; X22 = CC(C)(C(=O)*)c1ccc(C#N)cc1F; X70 = CC[C@H](CN[*:1])C(=O)[*:2]; X13 = CC(C)(C(=O)*)c1cccc(F)c1F; X37 = CC(C)(C(=O)*)c1cc(F)ccc1F; AEEA = NCCOCCOCC(=O)O; Aib = CC(C)(N)C(=O)O; βAla = NCCC(=O)O

Common to all, as to format: cell-based
In experiment [1] the target is T1, GLP-1 receptor (Homo sapiens, UniProt P43220). The experiment can be described thus: PathHunter β-arrestin assay, GLP-1 receptor. More on the design: host or cells: PathHunter CHO-K1 GLP1R β-Arrestin Cell Line. To be noted: β-arrestin-2 recruitment, PathHunter CHO-K1 GLP1R β-Arrestin Cell Line, 90 min at 37° C.; normalized to GLP-1; read-out: GLP-1R β Arrestin EC50. A general note: Arrestin recruitment assays detect the binding of arrestin to an activated receptor.

Experiment [2] has as its target T1, GLP-1 receptor. The experiment can be described thus: HitHunter cAMP assay, GLP-1 receptor. Conditions: for EC50: CHO cells stably expressing human GLP-1 receptor, cAMP accumulation, 30 min, read-out: EC50 GLP-1R; for Emax: CHO cells, cAMP, normalized to maximum signal from GLP-1 (high) and DMSO (low), read-out: Emax GLP-1R. (Cyclic AMP is a second messenger, typically raised through Gs and lowered through Gi signalling.)

Experiment [3] deals with T2, GIP receptor (Homo sapiens, UniProt P48546).
T2 sequence (P48546 22-466): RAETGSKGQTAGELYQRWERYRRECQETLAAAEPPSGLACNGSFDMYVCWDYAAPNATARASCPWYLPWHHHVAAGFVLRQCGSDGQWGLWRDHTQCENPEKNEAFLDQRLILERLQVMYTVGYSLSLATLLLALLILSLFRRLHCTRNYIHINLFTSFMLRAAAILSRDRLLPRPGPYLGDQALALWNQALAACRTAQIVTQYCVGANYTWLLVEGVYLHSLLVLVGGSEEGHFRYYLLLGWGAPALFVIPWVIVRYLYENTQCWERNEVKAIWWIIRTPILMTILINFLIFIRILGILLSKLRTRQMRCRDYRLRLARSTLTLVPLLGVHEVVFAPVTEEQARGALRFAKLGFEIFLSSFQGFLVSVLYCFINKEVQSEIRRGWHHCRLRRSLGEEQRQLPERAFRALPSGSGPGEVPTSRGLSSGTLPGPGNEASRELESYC
The experiment can be described thus: PathHunter β-arrestin assay, GIP receptor. To be noted: β-arrestin-2 recruitment, PathHunter CHO-K1 GIPR β-Arrestin Cell Line, 90 min at 37° C.; normalized to GIP; read-out: GIPR β Arrestin EC50. The arrangement: host or cells: PathHunter CHO-K1 GIPR β-Arrestin Cell Line.

The target of experiment [4] is T2, GIP receptor. The experiment can be described thus: HitHunter cAMP assay, GIP receptor. Conditions: for EC50: CHO cells stably expressing GIP receptor, cAMP accumulation, 30 min, read-out: EC50 GIP-1R; for Emax: CHO cells, cAMP, normalized to maximum signal from GIP (high) and DMSO (low), read-out: Emax GIP-1R.

T1 sequence (P43220 24-463): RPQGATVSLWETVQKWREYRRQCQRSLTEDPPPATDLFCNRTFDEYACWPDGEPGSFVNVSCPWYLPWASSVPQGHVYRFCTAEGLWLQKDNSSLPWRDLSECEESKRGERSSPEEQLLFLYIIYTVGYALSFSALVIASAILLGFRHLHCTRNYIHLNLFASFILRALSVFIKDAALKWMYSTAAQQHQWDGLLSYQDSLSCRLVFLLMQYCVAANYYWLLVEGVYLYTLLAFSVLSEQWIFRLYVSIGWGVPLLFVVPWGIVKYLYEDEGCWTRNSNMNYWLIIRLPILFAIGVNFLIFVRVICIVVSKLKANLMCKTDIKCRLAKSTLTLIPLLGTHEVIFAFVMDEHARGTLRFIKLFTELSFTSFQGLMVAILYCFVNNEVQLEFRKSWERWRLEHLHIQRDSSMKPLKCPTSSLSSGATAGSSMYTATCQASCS

As a reminder, the EC50 is the concentration giving half of the maximal effect. The term Emax denotes the maximal effect, on the per cent scale that the assay sets. `CC[C@H](C)[C@H](NC(=O)[C@H](CO)NC(=O)[C@H](Cc1ccc(O)cc1)NC(=O)[C@H](CC(=O)O)NC(=O)[C@H](CO)NC(=O)[C@@H](NC(=O)[C@H](Cc1ccccc1)NC(=O)[C@@H](NC(=O)CNC(=O)[C@H](CCC(=O)O)NC(=O)CCNC(=O)C1(c2ccc(F)cc2F)CCCC1)[C@@H](C)O)[C@@H](C)O)C(=O)N[C@@H](Cc1ccc(O)cc1)C(=O)N[C@@H](CC(C)C)C(=O)N[C@@H](CC(=O)O)C(=O)N[C@@H](CCCCN)C(=O)N[C@@H](CCC(N)=O)C(=O)N[C@@H](C)C(=O)N[C@@H](C)C(=O)NC(C)(C)C(=O)N[C@@H](CCC(=O)O)C(=O)N[C@@H](Cc1ccccc1)C(=O)N[C@H](C(=O)N[C@@H](CC(N)=O)C(=O)N[C@@H](Cc1c[nH]c2ccccc12)C(=O)N[C@@H](CC(C)C)C(=O)N[C@@H](CC(C)C)C(=O)N[C@@H](C)C(=O)NCC(=O)NCC(=O)N1CCC[C@H]1C(=O)N[C@@H](CO)C(=O)N[C@@H](CO)C(=O)NCC(=O)N[C@@H](C)C(=O)N1CCC[C@H]1C(=O)N1CCC[C@H]1C(=O)N1CCC[C@H]1C(=O)N[C@@H](CO)C(=O)N[C@@H](CCCCNC(=O)COCCOCCNC(=O)COCCOCCNC(=O)CC[C@H](NC(=O)CCCCCCCCCCCCCCCCCCC(=O)O)C(=O)O)C(N)=O)C(C)C` [Compound 145]: the EC50 was more than 1000 nM in experiment [1], 1 to 10 nM in experiment [2], more than 1000 nM in experiment [3] and 1 to 10 nM in experiment [4]. Moreover, the figures for the maximal effect (Emax) in experiment [2] and in experiment [4] were 97% and 102%, respectively.
On to `CC[C@H](C)[C@H](NC(=O)[C@H](CC(C)C)NC(=O)[C@H](Cc1c[nH]c2ccccc12)NC(=O)[C@H](CCC(N)=O)NC(=O)[C@@H](NC(=O)[C@H](Cc1ccccc1)NC(=O)[C@H](C)NC(=O)[C@H](CCCCNC(=O)COCCOCCNC(=O)COCCOCCNC(=O)CC[C@H](NC(=O)CCCCCCCCCCCCCCCCCCC(=O)O)C(=O)O)NC(=O)[C@H](CCC(N)=O)NC(=O)[C@H](C)NC(=O)[C@@H](NC(=O)[C@H](CCCCN)NC(=O)[C@H](CC(=O)O)NC(=O)[C@H](CC(C)C)NC(=O)C(C)(C)NC(=O)[C@@H](NC(=O)[C@H](CO)NC(=O)[C@H](Cc1ccc(O)cc1)NC(=O)[C@H](CC(=O)O)NC(=O)[C@H](CO)NC(=O)[C@@H](NC(=O)[C@H](Cc1ccccc1)NC(=O)[C@@H](NC(=O)CNC(=O)[C@H](CCC(=O)O)NC(=O)CCNC(=O)C(C)(C)c1cc(F)ccc1F)[C@@H](C)O)[C@@H](C)O)[C@@H](C)CC)[C@@H](C)CC)C(C)C)C(=O)N[C@@H](C)C(=O)NCC(=O)NCC(=O)N1CCC[C@H]1C(=O)N[C@@H](CO)C(=O)N[C@@H](CO)C(=O)NCC(=O)N[C@@H](C)C(=O)N1CCC[C@H]1C(=O)N1CCC[C@H]1C(=O)N1CCC[C@H]1C(=O)N[C@@H](CO)C(N)=O` [Compound 146] ({X37-βAla}-EGTFTSDYSI[Aib]LDKIAQK([AEEA-AEEA-γGlu-C20 diacid])AFVQWLIAGGPSSGAPPPS-NH2), for which the EC50 in experiment [1] is more than 1000 nM; in experiment [2], 0.1 to 1 nM; in experiment [3] it was less than 1000 nM; in experiment [4], 1 to 10 nM. The values for the Emax in experiment [2] and in experiment [4] were 102% and 104%, respectively.
In the case of `CC[C@H](C)[C@H](NC(=O)[C@H](CC(C)C)NC(=O)[C@H](Cc1c[nH]c2ccccc12)NC(=O)[C@H](CCC(N)=O)NC(=O)[C@@H](NC(=O)[C@H](Cc1ccccc1)NC(=O)[C@H](C)NC(=O)[C@H](CCCCNC(=O)COCCOCCNC(=O)COCCOCCNC(=O)CC[C@H](NC(=O)CCCCCCCCCCCCCCCCCCC(=O)O)C(=O)O)NC(=O)[C@H](CCC(N)=O)NC(=O)[C@H](C)NC(=O)[C@@H](NC(=O)[C@H](CCCCN)NC(=O)[C@H](CC(=O)O)NC(=O)[C@H](CC(C)C)NC(=O)C(C)(C)NC(=O)[C@@H](NC(=O)[C@H](CO)NC(=O)[C@H](Cc1ccc(O)cc1)NC(=O)[C@H](CC(=O)O)NC(=O)[C@H](CO)NC(=O)[C@@H](NC(=O)[C@H](Cc1ccccc1)NC(=O)[C@@H](NC(=O)CNC(=O)[C@H](CCC(=O)O)NC(=O)CCNC(=O)C(C)(C)c1cccc(F)c1F)[C@@H](C)O)[C@@H](C)O)[C@@H](C)CC)[C@@H](C)CC)C(C)C)C(=O)N[C@@H](C)C(=O)NCC(=O)NCC(=O)N1CCC[C@H]1C(=O)N[C@@H](CO)C(=O)N[C@@H](CO)C(=O)NCC(=O)N[C@@H](C)C(=O)N1CCC[C@H]1C(=O)N1CCC[C@H]1C(=O)N1CCC[C@H]1C(=O)N[C@@H](CO)C(N)=O` [Compound 147] ({X13-βAla}-EGTFTSDYSI[Aib]LDKIAQK([AEEA-AEEA-γGlu-C20 diacid])AFVQWLIAGGPSSGAPPPS-NH2), the EC50 is more than 1000 nM in experiment [1], 0.1 to 1 nM in experiment [2], less than 1000 nM in experiment [3] and 0.1 to 1 nM in experiment [4]. The Emax in experiment [2] turned out to be 99%; in experiment [4] it was 102%.
Turning to `CC[C@H](CNC(=O)C(C)(C)c1cc(F)cc(C#N)c1)C(=O)N[C@@H](CCC(=O)O)C(=O)NCC(=O)N[C@H](C(=O)N[C@@H](Cc1ccccc1)C(=O)N[C@H](C(=O)N[C@@H](CO)C(=O)N[C@@H](CC(=O)O)C(=O)N[C@@H](Cc1ccc(O)cc1)C(=O)N[C@@H](CO)C(=O)N[C@H](C(=O)NC(C)(C)C(=O)N[C@@H](CC(C)C)C(=O)N[C@@H](CC(=O)O)C(=O)N[C@@H](CCCCN)C(=O)N[C@H](C(=O)N[C@@H](C)C(=O)N[C@@H](CCC(N)=O)C(=O)N[C@@H](CCCCNC(=O)COCCOCCNC(=O)COCCOCCNC(=O)CC[C@H](NC(=O)CCCCCCCCCCCCCCCCCCC(=O)O)C(=O)O)C(=O)N[C@@H](C)C(=O)N[C@@H](Cc1ccccc1)C(=O)N[C@H](C(=O)N[C@@H](CCC(N)=O)C(=O)N[C@@H](Cc1c[nH]c2ccccc12)C(=O)N[C@@H](CC(C)C)C(=O)N[C@H](C(=O)N[C@@H](C)C(=O)NCC(=O)NCC(=O)N1CCC[C@H]1C(=O)N[C@@H](CO)C(=O)N[C@@H](CO)C(=O)NCC(=O)N[C@@H](C)C(=O)N1CCC[C@H]1C(=O)N1CCC[C@H]1C(=O)N1CCC[C@H]1C(=O)N[C@@H](CO)C(N)=O)[C@@H](C)CC)C(C)C)[C@@H](C)CC)[C@@H](C)CC)[C@@H](C)O)[C@@H](C)O` [Compound 148] ({Isobutyryl(2-(3-CN-5-F-Ph))}-[X70]EGTFTSDYSI[Aib]LDKIAQK([AEEA-AEEA-γGlu-C20 diacid])AFVQWLIAGGPSSGAPPPS-NH2), the EC50 in experiment [1] was more than 1000 nM; in experiment [2], 1 to 10 nM; in experiment [3], more than 1000 nM; in experiment [4], 10 to 100 nM. In addition, the Emax in experiment [2] was determined as 99%; in experiment [4], 101%.
Regarding `CC[C@H](C)[C@H](NC(=O)[C@H](CC(C)C)NC(=O)[C@H](Cc1c[nH]c2ccccc12)NC(=O)[C@H](CCC(N)=O)NC(=O)[C@@H](NC(=O)[C@H](Cc1ccccc1)NC(=O)[C@H](C)NC(=O)[C@H](CCCCNC(=O)COCCOCCNC(=O)COCCOCCNC(=O)CC[C@H](NC(=O)CCCCCCCCCCCCCCCCCCC(=O)O)C(=O)O)NC(=O)[C@H](CCC(N)=O)NC(=O)[C@H](C)NC(=O)[C@@H](NC(=O)[C@H](CCCCN)NC(=O)[C@H](CC(=O)O)NC(=O)[C@H](CC(C)C)NC(=O)C(C)(C)NC(=O)[C@@H](NC(=O)[C@H](CO)NC(=O)[C@H](Cc1ccc(O)cc1)NC(=O)[C@H](CC(=O)O)NC(=O)[C@H](CO)NC(=O)[C@@H](NC(=O)[C@H](Cc1ccccc1)NC(=O)[C@@H](NC(=O)CNC(=O)[C@H](CCC(=O)O)NC(=O)CCNC(=O)C(C)(C)c1ccc(C#N)cc1F)[C@@H](C)O)[C@@H](C)O)[C@@H](C)CC)[C@@H](C)CC)C(C)C)C(=O)N[C@@H](C)C(=O)NCC(=O)NCC(=O)N1CCC[C@H]1C(=O)N[C@@H](CO)C(=O)N[C@@H](CO)C(=O)NCC(=O)N[C@@H](C)C(=O)N1CCC[C@H]1C(=O)N1CCC[C@H]1C(=O)N1CCC[C@H]1C(=O)N[C@@H](CO)C(N)=O` [Compound 149] ({X22-βAla}-EGTFTSDYSI[Aib]LDKIAQK([AEEA-AEEA-γGlu-C20 diacid])AFVQWLIAGGPSSGAPPPS-NH2), the EC50 in experiment [1] is more than 1000 nM; in experiment [2], 0.1 to 1 nM; in experiment [3] it was less than 1000 nM; in experiment [4], 1 to 10 nM. Besides, the Emax stood at 98% in experiment [2] and 96% in experiment [4].
